Patent US20130231305A1, “Method of Modulating Protein 14-3-3 Functionality By Facilitating or Inhibiting Phosphorylation” (Medvet Science Pty. Ltd., priority 2010, published 2013)
Where a chain is given by its changes, count along the chain named. “Also recorded” adds a separate entry of the source.

Legend:
14-3-3 isoforms = assay: Phosphorylation of recombinant 14-3-3 isoforms by PKA catalytic subunit; format: biochemical; conditions: 50 μM in 0.1% ethanol
Procedure: FIG. 3 is an image depicting that sphingosine is required for the phosphorylation of multiple 14-3-3 isoforms in the third helix. (A) Primary sequence alignment of 14-3-3 isoforms in the third helix showing conservation of a Ser phosphorylation site (shown in bold). Asterisks indicate identical amino acids. (B) Recombinant 14-3-3 isoforms were incubated with PKA catalytic subunit in the presence of 50 μM sphingosine, dimethyl-sphingosine (DMS) or FTY 720 (FTY) delivered in 0.1% ethanol (EtOH). Phosphorylated 14-3-3s were detected by autoradiography. Gels were coomassie stained to show equal loading of 14-3-3 substrate.
(§1) Substrate 14-3-3 (either 0.5 μg of purified recombinant 14-3-3, a […] of fractions from gel filtration or immunoprecipitates from 14-3-3ζ-Myc transfected COS cells) were added to reaction mixture comprising 0.2 Units of the PKA catalytic subunit, in the presences or absence of sphingolipid (delivered in 0.1% v/v ethanol) in PICA reaction buffer (20 mM MOPS, pH 7.4, 20 mM β-glycerol phosphate, 4 mM EGTA, 1 mM Na3VO4, 60 mM MgCl2, 1 mM DTT, 500 μM ATP, 2.4 μCi [^32P]γ-ATP). Reactions were incubated at 37° C. for 15 minutes. After incubation, reactions were separated on 12.5% SDS-PAGE, coomassie stained and 14-3-3 phosphorylation analysed by autoradiography.

14-3-3ζ [1] = biological target: T1, 14-3-3ζ (Homo sapiens, UniProt P63104); assay: 14-3-3 phosphorylation by PKA catalytic subunit (autoradiography); format: biochemical; conditions: 50 μM lipid delivered in 0.1% ethanol
T1 construct: made in house
T1 sequence (P63104 1-245): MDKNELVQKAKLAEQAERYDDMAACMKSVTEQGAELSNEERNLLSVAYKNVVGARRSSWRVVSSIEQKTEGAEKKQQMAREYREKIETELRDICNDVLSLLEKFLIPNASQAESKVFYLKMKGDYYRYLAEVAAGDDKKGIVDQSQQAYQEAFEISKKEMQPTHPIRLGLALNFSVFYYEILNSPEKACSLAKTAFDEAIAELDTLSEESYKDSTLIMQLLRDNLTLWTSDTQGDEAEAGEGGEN
Procedure: 14-3-3ζ (wild-type or S58A mutant) was incubated with the catalytic subunit of PKA in the presence (+) or absence (−) of 50 μM sphingosine (A) or DMS (B) delivered in 0.1% ethanol. Phosphorylated 14-3-3ζ was detected by autoradiography.
The assay was carried out by incubating 14-3-g (0.5 μg) with catalytic subunit of PKA (0.2 Units) with the indicated concentration of DMS delivered in 0.1% ethanol. Reactions were separated on SDS-PAGE and phosphorylated protein detected by autoradiography. […] (B) 14-3-3ζ was incubated with the catalytic subunit of PKA and 50 μM D-erythro-sphingosine (Sph), D-erythro-trimethyl-sphingosine (TMS), D-erythro-dihydro-sphingosine (DHS), phyto-sphingosine (PSph), D-erythro-sphingosine-1-phosphate (SIP), C2-ceramide (C2-Cer), sphingomyelin (SM), spermine (Sper) or linoleic acid (LA), all delivered in 0.1% ethanol. Phosphorylated 14-3-3ζ was detected by autoradiography.
as §1

14-3-3ζ [2] = biological target: T1, 14-3-3ζ; assay: Gel filtration of 14-3-3ζ with DMS and [3H]-sphingosine; format: binding; conditions: co-elution in fractions 3-14; 25 μM DMS with trace [3H]-sphingosine
Procedure: FIG. 4 is a graphical representation depicting that sphingosine binds to 14-3-3 in vitro. 10 μg of recombinant 14-3-3 was incubated for 15 minutes at room temperature in 50 μl of buffer either in the absence (FIG. A, thick line) or presence of [^3H]-sphingosine (0.5 μCi) with 25 μM DMS (thin line). After incubation, the mixtures were separated by gel filtration as described under “examples”. (A) Absorbance at 280 nm was monitored continuously to identify the elution position of 14-3-3 protein. An aliquot of each eluted fraction was analysed for (B) sphingosine-binding to 14-3-3 by measuring [^3H]-sphingosine radioactivity as determined by scintillation counting; and (C) 14-3-3 phosphorylatability by incubation with 0.2 Units of PKA catalytic subunit and [^32P]γ-ATP. Phosphorylated 14-3-3 was detected by autoradiography. The chromatography and assays were repeated twice and similar results obtained.
Recombinant 14-3-3ζ (10 μg) was pre-incubated with 25 μM […] delivered in 0.1% v/v ethanol and [^3H]-sphingosine, (0.5 μCi) and then chromatographed on a SMART system with a Superdex 200PC 3.2/30 column (Amersham Biosciences, Australia). The system was operated at 40 μl/min using 20 mM Tris-HCl pH 7.5, 150 mM NaCl, 0.1 mM DTT, 10 mM β-mercaptoethanol as running buffer. Fractions (40 μl) were collected for 60 minutes after sample injection. […]

14-3-3ζ S58A mutant = biological target: T2, 14-3-3ζ S58A mutant (Homo sapiens, UniProt P63104, S58A); assay: Phosphorylation of S58A mutant 14-3-3ζ by PKA catalytic subunit; format: biochemical; conditions: 50 μM sphingosine; alanine substitution of Ser58
T2 construct: made in house
T2 sequence (P63104 1-245 S58A): T1 sequence (P63104 1-245) with S58A
Procedure: FIG. 1 is an image depicting that sphingosine is required for 14-3-3ζ phosphorylation on Ser58 by the catalytic subunit of PKA. 14-3-3ζ (wild-type or S58A mutant) was incubated with the catalytic subunit of PKA in the presence (+) or absence (−) of 50 μM sphingosine (A) or DMS (B) delivered in 0.1% ethanol. Phosphorylated 14-3-3ζ was detected by autoradiography. Gels were coomassie stained to show equal loading of 14-3-3 substrate.
as §1

14-3-3ζ [3] = biological target: T1, 14-3-3ζ; assay: 14-3-3 phosphorylation by PKCδCat-HA immunoprecipitates; format: biochemical; conditions: recombinant 14-3-3ζ, FIG. 5B
Procedure: FIG. 5 is an image depicting that DMS is required for phosphorylation of 14-3-3ζ by PKCδCat but not for activation of the kinase. COS cells were transfected with either an empty expression construct (Mock) or one encoding a HA-tagged truncated form of PKCδ corresponding to the caspase-3 cleaved protein (PKCδCat-HA). 20 hours after transfection the cells were lysed and PKCδCat-HA was immunoprecipitated using an anti-HA antibody. (A) PKC assays were carried out on the immunoprecipitates from mock (open bars) and PKCδCat-HA (shaded bars) expressing cells using Ser25 peptide as substrate with [^32P]γ-ATP in the presence or absence of 100 μM DMS (delivered in 0.1% ethanol) or 10 μM of GF109203X (GFX), the PKC inhibitor. The values represent means±S.E. of triplicate determinations. (B) PKCδCat-HA immunoprecipitates were incubated with recombinant 14-3-3ζ and [^32P]γ-ATP in the presence or absence of DMS or GF109203X (GFX). Phosphorylated 14-3-3 was detected by autoradiography after separation of SDS-PAGE (upper panel). The gel was also coomassie stained to show equal loading of 14-3-3 protein (lower panel).
Equal amounts of PKCδCat-HA immunoprecipitate were used to assay for PKC kinase activity, or to phosphorylate recombinant 14-3-3. […] Following incubation, reactions were separated on 12.5% SDS-PAGE, coomassie stained and 14-3-3 phosphorylation analysed by autoradiography.

[4] = published, Contreras et al. 2006; cited from earlier work

**Q.** Which results are given for `CCCCCCCCCCCCC/C=C/[C@@H](O)[C@@H](N)CO` [sphingosine, D-erythro-sphingosine]?
**A.** phosphorylation of 14-3-3 isoforms by PKA catalytic subunit (14-3-3 isoforms): all isoforms tested with the exception of 14-3-36 were phosphorylatable; phosphorylation of 14-3-3ζ on Ser58 by PKA catalytic subunit (14-3-3ζ [1]): not phosphorylated by PKA catalytic subunit unless sphingosine was present; also recorded: allowed phosphorylation; binding of [3H]-sphingosine to 14-3-3 (14-3-3ζ [2]): directly bound to 14-3-3; sphingosine-dependent phosphorylation of S58A 14-3-3ζ (14-3-3ζ S58A mutant): abolished; phosphorylation of 14-3-3 by PKCδCat (14-3-3ζ [3]): no phosphorylation is observed with PKCδCat unless sphingosine is present; critical micelle concentration [4]: 18 µM
